Test results reported in patent US20140315889A1, “HYDROXAMATE DERIVATIVES FOR HDAC INHIBITOR, AND THE PHARMACEUTICAL COMPOSITION COMPRISING THEREOF” (CHONG KUN DANG PHARMACEUTICAL CORP., priority 2011, published 2014).
pIC50: −log10 of the molar value. Read-outs that look alike come from different tables or passages of the source.

Columns and labels:
Format in all cases: biochemical
Human recombinant HDAC1 = molecular target: T1, Human recombinant HDAC1 (Homo sapiens, UniProt Q13547); experiment: HDAC enzyme activity test, HDAC1
T1 construct: purchased Enzo Life Science Co. (named for the kit; assigned to the enzyme from the BML- catalogue prefix) BML-SE456
T1 sequence (Q13547 whole entry): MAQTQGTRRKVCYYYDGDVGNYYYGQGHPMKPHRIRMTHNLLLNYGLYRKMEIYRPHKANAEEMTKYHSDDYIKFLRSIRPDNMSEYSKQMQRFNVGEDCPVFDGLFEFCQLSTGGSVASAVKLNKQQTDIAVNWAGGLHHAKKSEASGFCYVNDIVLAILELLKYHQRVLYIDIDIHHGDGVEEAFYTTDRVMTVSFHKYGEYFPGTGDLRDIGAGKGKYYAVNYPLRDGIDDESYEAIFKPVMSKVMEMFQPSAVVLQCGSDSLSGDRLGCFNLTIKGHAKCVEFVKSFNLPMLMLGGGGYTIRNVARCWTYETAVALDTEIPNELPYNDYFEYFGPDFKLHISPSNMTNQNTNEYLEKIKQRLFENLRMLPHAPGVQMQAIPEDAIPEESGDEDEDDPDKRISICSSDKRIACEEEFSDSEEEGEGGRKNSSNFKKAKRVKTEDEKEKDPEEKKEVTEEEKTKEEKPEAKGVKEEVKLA
Protocol: (§1) Then, 0.3 μg of enzyme and 10 μM of substrate per well were added, reacted at 30° C. for 60 minutes. Thereto, Fluor de Lys® Developer II (BML-KI176) was added and reacted for 30 minutes. […] From the data, the respective IC50 were calculated by GraphPad Prism 4.0 program.

human recombinant HDAC6 = molecular target: T2, human recombinant HDAC6 (Homo sapiens, UniProt Q9UBN7); experiment: HDAC enzyme activity test, HDAC6; settings: for Selectivity for HDAC6, HD1/HD6: ratio HDAC1 IC50 / HDAC6 IC50
T2 construct: purchased Calibiochem Co. (so in the source) 382180
T2 sequence (Q9UBN7 1-1215): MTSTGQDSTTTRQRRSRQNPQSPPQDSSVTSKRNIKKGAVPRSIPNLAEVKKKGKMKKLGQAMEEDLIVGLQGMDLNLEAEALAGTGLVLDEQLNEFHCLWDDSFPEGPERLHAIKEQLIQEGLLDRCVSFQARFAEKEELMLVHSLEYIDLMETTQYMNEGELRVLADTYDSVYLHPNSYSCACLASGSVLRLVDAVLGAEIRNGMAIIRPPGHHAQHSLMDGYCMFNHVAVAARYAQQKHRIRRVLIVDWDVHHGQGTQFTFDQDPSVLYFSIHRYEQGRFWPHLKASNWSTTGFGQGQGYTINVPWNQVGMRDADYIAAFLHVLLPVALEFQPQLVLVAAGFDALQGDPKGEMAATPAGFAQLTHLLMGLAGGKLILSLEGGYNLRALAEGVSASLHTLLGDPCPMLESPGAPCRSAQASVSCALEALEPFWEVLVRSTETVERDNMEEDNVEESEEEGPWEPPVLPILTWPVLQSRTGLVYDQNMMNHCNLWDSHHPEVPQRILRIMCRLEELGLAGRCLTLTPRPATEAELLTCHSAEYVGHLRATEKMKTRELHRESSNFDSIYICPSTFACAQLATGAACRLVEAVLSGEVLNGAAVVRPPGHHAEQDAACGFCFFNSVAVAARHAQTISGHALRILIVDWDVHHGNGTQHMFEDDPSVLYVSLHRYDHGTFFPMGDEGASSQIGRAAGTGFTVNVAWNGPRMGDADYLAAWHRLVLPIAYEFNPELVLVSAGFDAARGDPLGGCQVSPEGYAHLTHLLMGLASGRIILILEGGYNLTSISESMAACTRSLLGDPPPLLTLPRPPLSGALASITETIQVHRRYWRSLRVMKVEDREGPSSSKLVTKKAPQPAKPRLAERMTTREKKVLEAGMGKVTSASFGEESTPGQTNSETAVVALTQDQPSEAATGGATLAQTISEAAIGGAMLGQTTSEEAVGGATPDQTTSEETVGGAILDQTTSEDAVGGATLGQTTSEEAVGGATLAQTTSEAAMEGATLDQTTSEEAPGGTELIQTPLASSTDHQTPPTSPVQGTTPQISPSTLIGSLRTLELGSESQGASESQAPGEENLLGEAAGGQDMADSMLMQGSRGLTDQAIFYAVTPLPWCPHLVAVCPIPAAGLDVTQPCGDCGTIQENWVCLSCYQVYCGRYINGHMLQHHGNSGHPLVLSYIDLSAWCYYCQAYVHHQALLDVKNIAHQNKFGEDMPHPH
Protocol: as §1

HDAC8 = molecular target: T3, HDAC8 (Homo sapiens, UniProt Q9BY41); experiment: HDAC enzyme activity test, HDAC8; settings: Table 11, eleven HDAC isozymes; read-out: Inhibition ability (IC50) against HDAC8
T3 sequence (Q9BY41 1-377): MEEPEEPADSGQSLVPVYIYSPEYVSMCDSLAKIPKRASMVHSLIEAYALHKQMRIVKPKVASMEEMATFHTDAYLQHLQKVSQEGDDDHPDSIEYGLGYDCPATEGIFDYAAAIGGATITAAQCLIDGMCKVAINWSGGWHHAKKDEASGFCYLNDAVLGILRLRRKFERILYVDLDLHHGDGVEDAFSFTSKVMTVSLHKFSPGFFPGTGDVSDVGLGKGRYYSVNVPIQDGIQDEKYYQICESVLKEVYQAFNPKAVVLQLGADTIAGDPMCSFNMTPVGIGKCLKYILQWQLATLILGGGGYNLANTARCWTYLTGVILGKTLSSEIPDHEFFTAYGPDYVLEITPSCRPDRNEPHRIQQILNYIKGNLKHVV
Protocol: as §1

HDAC9 = HDAC9 (Homo sapiens, UniProt Q9UKV0); experiment: HDAC enzyme activity test, HDAC9; settings: Table 11, eleven HDAC isozymes; read-out: Inhibition ability (IC50) against HDAC9
Sequence of HDAC9 (Q9UKV0 whole entry, species assumed): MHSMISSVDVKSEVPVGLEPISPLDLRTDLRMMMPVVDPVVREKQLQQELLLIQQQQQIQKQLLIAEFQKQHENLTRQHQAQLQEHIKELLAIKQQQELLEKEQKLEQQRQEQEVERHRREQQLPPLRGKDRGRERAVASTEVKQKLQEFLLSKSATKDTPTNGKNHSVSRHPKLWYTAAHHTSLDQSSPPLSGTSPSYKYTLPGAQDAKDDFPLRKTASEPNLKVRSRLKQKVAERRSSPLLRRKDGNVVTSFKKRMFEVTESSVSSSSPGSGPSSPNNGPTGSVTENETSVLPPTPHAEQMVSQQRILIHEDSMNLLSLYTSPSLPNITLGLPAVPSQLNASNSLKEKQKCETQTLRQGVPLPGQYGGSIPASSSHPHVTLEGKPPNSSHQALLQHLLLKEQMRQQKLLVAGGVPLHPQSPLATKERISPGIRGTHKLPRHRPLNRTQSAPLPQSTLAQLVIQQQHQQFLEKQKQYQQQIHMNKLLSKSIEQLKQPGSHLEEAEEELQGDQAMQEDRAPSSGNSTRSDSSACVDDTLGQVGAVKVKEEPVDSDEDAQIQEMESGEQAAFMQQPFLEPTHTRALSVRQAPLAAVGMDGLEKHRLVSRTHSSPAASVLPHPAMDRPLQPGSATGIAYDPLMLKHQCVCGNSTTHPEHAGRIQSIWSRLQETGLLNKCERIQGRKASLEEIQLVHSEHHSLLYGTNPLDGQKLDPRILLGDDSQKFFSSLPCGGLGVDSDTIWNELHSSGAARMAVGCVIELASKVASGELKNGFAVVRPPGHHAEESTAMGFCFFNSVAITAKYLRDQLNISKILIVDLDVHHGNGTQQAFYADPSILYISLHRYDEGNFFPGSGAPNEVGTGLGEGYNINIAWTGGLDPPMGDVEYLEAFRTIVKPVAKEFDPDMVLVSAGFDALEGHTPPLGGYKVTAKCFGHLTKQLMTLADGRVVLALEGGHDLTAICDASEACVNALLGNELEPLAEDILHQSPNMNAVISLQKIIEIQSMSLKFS
Protocol: as §1

HDAC11 = molecular target: T4, HDAC11 (Homo sapiens, UniProt Q96DB2); experiment: HDAC enzyme activity test, HDAC11; settings: Table 11, eleven HDAC isozymes; read-out: Inhibition ability (IC50) against HDAC11
T4 sequence (Q96DB2 1-347): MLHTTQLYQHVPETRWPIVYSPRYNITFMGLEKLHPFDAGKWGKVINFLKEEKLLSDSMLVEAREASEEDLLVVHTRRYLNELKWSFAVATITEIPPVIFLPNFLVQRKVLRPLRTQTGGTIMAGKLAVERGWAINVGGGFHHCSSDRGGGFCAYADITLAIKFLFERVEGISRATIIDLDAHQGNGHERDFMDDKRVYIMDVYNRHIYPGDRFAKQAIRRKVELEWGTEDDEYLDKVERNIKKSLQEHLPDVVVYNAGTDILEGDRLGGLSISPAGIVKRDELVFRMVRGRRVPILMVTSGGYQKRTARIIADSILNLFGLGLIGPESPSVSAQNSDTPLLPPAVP
Protocol: as §1

[1] = Table 12, read-out: Inhibition ability (IC50) HDAC1
[2] = Table 11, eleven HDAC isozymes, read-out: Inhibition ability (IC50) against HDAC6
[3] = Table 12, read-out: Inhibition ability (IC50) HDAC6

| pIC50 (Human recombinant HDAC1; [1]) | Selectivity for HDAC6, HD1/HD6 (human recombinant HDAC6; Table 12) | pIC50 (human recombinant HDAC6; [3]) | Compound | pIC50 (Human recombinant HDAC1; Table 11, eleven HDAC isozymes, read-out: Inhibition ability (IC50) against HDAC1) | pIC50 (human recombinant HDAC6; [2]) | pIC50 (HDAC8) | pIC50 (HDAC9) | pIC50 (HDAC11) |
| --- | --- | --- | --- | --- | --- | --- | --- | --- |
| 5.49 | 145.1 | 7.66 | Cc1c2c(n(CCCCCCC(=O)NO)c1C)CCCC2=O [Compound 328, 7-(2,3-dimethyl-4-oxo-4,5,6,7-tetrahydro-1H-indol-1-yl)-N-hydroxyheptanamide] |  |  |  |  |  |
| 6.40 | 14.3 | 7.55 | Cc1cc2c(n1CCCCCC(=O)NO)CC(C)(C)CC2=O [Compound 345, N-hydroxy-6-(2,6,6-trimethyl-4-oxo-4,5,6,7-tetrahydroindol-1-yl)hexanamide] |  |  |  |  |  |
| 6.59 | 10.2 | 7.60 | Cc1cc2c(n1CCCCCCC(=O)NO)CCCC2=O [Compound 346, N-hydroxy-7-(2-methyl-4-oxo-4,5,6,7-tetrahydroindol-1-yl)heptanamide] |  |  |  |  |  |
| 6.34 | 16.8 | 7.57 | Cc1cc2c(n1CCCCCCC(=O)NO)CC(C)(C)CC2=O [Compound 347, N-hydroxy-7-(2,6,6-trimethyl-4-oxo-4,5,6,7-tetrahydroindol-1-yl)heptanamide] |  |  |  |  |  |
| 6.00 | 9.8 | 6.99 | Cc1c2c(n(CCCCCC(=O)NO)c1C)CC(C)(C)CC2=O [Compound 350, N-hydroxy-6-(2,3,6,6-tetramethyl-4-oxo-4,5,6,7-tetrahydro-1H-indol-1-yl)hexanamide] |  |  |  |  |  |

| Compound | pIC50 (Human recombinant HDAC1; [1]) | Selectivity for HDAC6, HD1/HD6 (human recombinant HDAC6; Table 12) | pIC50 (human recombinant HDAC6; [3]) | pIC50 (Human recombinant HDAC1; Table 11, eleven HDAC isozymes, read-out: Inhibition ability (IC50) against HDAC1) | pIC50 (human recombinant HDAC6; [2]) | pIC50 (HDAC8) | pIC50 (HDAC9) | pIC50 (HDAC11) |
| --- | --- | --- | --- | --- | --- | --- | --- | --- |
| CC1(C)CC(=O)c2c(n(Cc3ccc(C(=O)NO)cc3)c3ccccc23)C1 [Compound 19, 4-((2,2-dimethyl-4-oxo-1,2,3,4-tetrahydrocarbazol-9-yl)methyl)-N-hydroxybenzamide] | 5.37 | 201.8 | 7.68 | 4.74 | 7.45 | 6.10 | 4.52 | 4.65 |
| CC1(C)CC(=O)c2c(n(CCCCCC(=O)NO)c3ccc(F)cc23)C1 [Compound 55, 6-(6-fluoro-2,2-dimethyl-4-oxo-1,2,3,4-tetrahydrocarbazol-9-yl)-N-hydroxyhexanamide] | 5.39 | 72.5 | 7.25 |  | 6.64 | 6.30 |  |  |
| CCCCN1CCN(CC2CCc3c(c4cc(F)ccc4n3CCCCCC(=O)NO)C2=O)CC1 (stereo not shown) [Compound 326, 6-(3-((4-butylpiperazin-1-yl)methyl)-6-fluoro-4-oxo-1,2,3,4-tetrahydrocarbazol-9-yl)-N-hydroxyhexanamide] | 5.00 | 103.3 | 7.01 |  |  |  |  |  |
| O=C(CCCCCCn1c2c(c3cc(F)ccc31)C(=O)C(CN1CCOCC1)CC2)NO (stereo not shown) [Compound 344, 7-(6-fluoro-3-(morpholinomethyl)-4-oxo-1,2,3,4-tetrahydrocarbazol-9-yl)-N-hydroxyheptanamide] | 6.99 | 6.3 | 7.79 |  |  |  |  |  |
